Patent US20120245159A1, “COMPOSITION AND METHOD FOR CONTROLLING ARTHROPOD PESTS” (SUMITOMO CHEMICAL COMPANY, LIMITED, priority 2009, published 2012)

Legend:
[1] = system: cotton aphid (Aphis gossypii); test: Test Example 1: pesticidal effect against cotton aphid by spray treatment (cucumber leaf disk, control value); format: in vivo; details: composition of the compound and clothianidin; spray over cucumber leaf disk, 25° C., 5 days; summary of Table 43
Experimental: A commercially available clothianidin water-soluble agent, manufactured by Sumitomo Chemical Co., Ltd. under the product name of Dantotsu (registered trademark) water-soluble agent, as the neonicotinoide compound was diluted with water. […] In a well of 24-well plate containing agar, a cucumber leaf disk was put on the agar and about 15 cotton aphids (Aphis gossypii) were released on the leaf disk. The test chemical solution (20 μl/well) was sprayed over the leaf disk, followed by storage in a constant-temperature breeding room at 25° C. for 5 days, and then the number of surviving aphids was checked. A control value (%) was calculated by the following equation. […] wherein symbols represents the following meanings. Cb: Number of bugs in non-treated group before treatment Cai: Number of bugs in a non-treated group on observation Tb: Number of bugs in treated group before treatment Tai: Number of bugs in treated group on observation

[2] = system: brown planthopper (Nilaparvata lugens); test: Test Example 2: pesticidal effect against brown planthopper by foliage spray treatment of rice (control value); format: in vivo; details: foliage spray of rice seedlings, third-instar larvae, after 5 days
[3] = composition of the compound and clothianidin, summary of Table 44
[4] = composition of the compound and dinotefuran, summary of Table 48
[5] = composition of the compound and imidacloprid, summary of Table 47
[6] = composition of the compound and nitenpyram, summary of Table 45
[7] = composition of the compound and thiamethoxam, summary of Table 46

Structure (SMILES) | pesticidal efficacy against cotton aphid (Aphis gossypii) [1] | pesticidal efficacy against brown planthopper (Nilaparvata lugens) [2, 3] | pesticidal efficacy against brown planthopper (Nilaparvata lugens) [2, 4] | pesticidal efficacy against brown planthopper (Nilaparvata lugens) [2, 5] | pesticidal efficacy against brown planthopper (Nilaparvata lugens) [2, 6] | pesticidal efficacy against brown planthopper (Nilaparvata lugens) [2, 7]
FC(F)(F)C(F)(F)c1ccc2oc(-c3ccncc3)nc2c1 [Compound 65, 5-(pentafluoroethyl)-2-(pyridin-4-yl)-benzoxazole] | high pesticidal efficacy | – | – | – | – | –
CSc1cnccc1-c1nc2cc(C(F)(F)F)cnc2o1 [Compound 146, 2-(3-methylthiopyridin-4-yl)-6-(trifluoromethyl)oxazolo[5,4-b]pyridine] | high pesticidal efficacy | high pesticidal efficacy | high pesticidal efficacy | high pesticidal efficacy | high pesticidal efficacy | high pesticidal efficacy
CCS(=O)(=O)c1cnccc1-c1nc2cc(C(F)(F)F)cnc2o1 [Compound 150, 2-[3-(ethanesulfonyl)pyridin-4-yl]-6-(trifluoromethyl)oxazolo[5,4-b]pyridine] | high pesticidal efficacy | – | – | – | – | –
CC(C)N(C)c1cnccc1-c1nc2cc(C(F)(F)F)ccc2o1 [Compound 132, isopropyl-methyl-{4-[5-(trifluoromethyl)benzoxazole-2-yl]pyridin-3-yl}amine] | high pesticidal efficacy | – | – | – | – | –
COc1cnccc1-c1nc2cc3c(cc2o1)C(F)(F)OC3(F)F [Compound 88, 5,5,7,7-tetrafluoro-2-(3-methoxypyridin-4-yl)-5,7-dihydro-furo[3′,4′:4,5]benzo[1,2-d]oxazole] | high pesticidal efficacy | – | – | – | – | –
CCS(=O)(=O)c1cnccc1-c1nc2cc(C(F)(F)F)ccc2o1 [Compound 133, 2-[3-(ethanesulfonyl)pyridin-4-yl]-5-(trifluoromethyl)benzoxazole] | high pesticidal efficacy | – | – | – | – | –
CCc1cnccc1-c1nc2cc(C(F)(F)F)cnc2o1 [Compound 143, 2-(3-ethylpyridin-4-yl)-6-(trifluoromethyl)oxazolo[5,4-b]pyridine] | high pesticidal efficacy | high pesticidal efficacy | high pesticidal efficacy | high pesticidal efficacy | high pesticidal efficacy | high pesticidal efficacy
[O-][n+]1ccc(-c2nc3cc(C(F)(F)F)cnc3o2)c(Cl)c1 [Compound 140, 2-(3-chloro-1-oxypyridin-4-yl)-6-(trifluoromethyl)oxazolo[5,4-b]pyridine] | high pesticidal efficacy | – | – | – | – | –
FC(F)(F)Sc1ccc2oc(-c3ccncc3Cl)nc2c1 [Compound 77, 2-(3-chloropyridin-4-yl)-5-(trifluoromethylthio)benzoxazole] | high pesticidal efficacy | high pesticidal efficacy | high pesticidal efficacy | high pesticidal efficacy | high pesticidal efficacy | high pesticidal efficacy
Cc1c[n+]([O-])ccc1-c1nc2cc(C(F)(F)F)ccc2o1 [Compound 24, 3-methyl-4-[5-(trifluoromethyl)benzoxazole-2-yl]pyridine N-oxide] | high pesticidal efficacy | – | – | – | – | –
FC(F)(F)c1ccc2oc(-c3ccncc3Cl)nc2c1 [Compound 18, 2-(3-chloropyridin-4-yl)-5-(trifluoromethyl)benzoxazole] | high pesticidal efficacy | high pesticidal efficacy | high pesticidal efficacy | high pesticidal efficacy | high pesticidal efficacy | high pesticidal efficacy
FC(F)(F)c1cnc2oc(-c3ccncc3Cl)nc2c1 [Compound 139, 2-(3-chloropyridin-4-yl)-6-(trifluoromethyl)oxazolo[5,4-b]pyridine] | – | high pesticidal efficacy | high pesticidal efficacy | high pesticidal efficacy | high pesticidal efficacy | high pesticidal efficacy
FC(F)(F)c1cnc2oc(-c3ccncc3C(F)(F)F)nc2c1 [Compound 144, 6-trifluoromethyl-2-[3-(trifluoromethyl)pyridin-4-yl]-oxazolo[5,4-b]pyridine] | high pesticidal efficacy | – | – | – | – | –
FC(F)(F)c1cnc2oc(-c3ccncc3)nc2c1 [Compound 138, 2-pyridin-4-yl-6-(trifluoromethyl)oxazolo[5,4-b]pyridine] | high pesticidal efficacy | – | – | – | – | –
FC(F)(F)c1ccc2oc(-c3ccncc3)nc2c1 [Compound 13, 2-(pyridin-4-yl)-5-(trifluoromethyl)benzoxazole] | high pesticidal efficacy | – | – | – | – | –
CSc1cnccc1-c1nc2cc(C(F)(F)F)ccc2o1 [Compound 40, 2-[3-(methylthio)pyridin-4-yl]-5-(trifluoromethyl)benzoxazole] | high pesticidal efficacy | – | – | – | – | –
FC(F)(F)c1ccc2oc(-c3ccncc3-c3cccnc3)nc2c1 [Compound 128, 4-(5-trifluoromethyl-benzoxazole-2-yl)-[3,3′]bipyridinyl] | high pesticidal efficacy | high pesticidal efficacy | high pesticidal efficacy | high pesticidal efficacy | high pesticidal efficacy | high pesticidal efficacy
CC(C)Oc1cnccc1-c1nc2cc(C(F)(F)F)ccc2o1 [Compound 70, 2-(3-isopropoxypyridin-4-yl)-5-(trifluoromethyl)benzoxazole] | high pesticidal efficacy | high pesticidal efficacy | high pesticidal efficacy | high pesticidal efficacy | high pesticidal efficacy | high pesticidal efficacy
CCc1cnccc1-c1nc2cc(C(F)(F)F)ccc2o1 [Compound 35, 2-(3-ethylpyridin-4-yl)-5-(trifluoromethyl)benzoxazole] | high pesticidal efficacy | – | – | – | – | –
CCc1cnccc1-c1nc2cc(OC(F)(F)F)ccc2o1 [Compound 109, 2-(3-ethylpyridin-4-yl)-5-(trifluoromethoxy)benzoxazole] | – | high pesticidal efficacy | high pesticidal efficacy | high pesticidal efficacy | high pesticidal efficacy | high pesticidal efficacy
FC(F)COc1cnccc1-c1nc2cc(C(F)(F)F)ccc2o1 [Compound 110, 2-[3-(2,2-difluoroethoxy)pyridin-4-yl]-5-(trifluoromethyl)benzoxazole] | high pesticidal efficacy | – | – | – | – | –
